Literature values in patent publication US20080171795A1, “Novel Inter and Intra Multilamellar Vesicular Composition” (LIFE-CARE INNOVATIONS PVT. LTD., priority 2005, published 2008).
Read-outs that look alike come from different tables or passages of the source.

Key:
[1] = test system: psoriasis; details: compared with dithranol
[2] = topical, skin with impaired stratum corneum barrier

| SMILES | Efficacy [1] | Irritancy and staining [1] | Solubility (in acetone) | Solubility (in alcohol, ether, glacial acetic acid) | Solubility (in dilute solution of alkali hydroxides) | Solubility (in methylene chloride, chloroform) | Solubility (in water) | Solubility (in water, listed as dithranol) | Time to penetrate into the skin [2] [min] |
| --- | --- | --- | --- | --- | --- | --- | --- | --- | --- |
| CCCC(=O)C1c2cccc(O)c2C(=O)c2c(O)cccc21 [butantrone, 10-butyryldithranol] | compromised | reduced irritancy and staining |  |  |  |  |  |  |  |
| O=C1c2c(O)cccc2Cc2cccc(O)c21 [Dithranol, 1,8-dihydroxyanthrone] |  |  | alcohol, ether, glacial acetic acid, sparingly | slightly soluble | chloroform. dissolves in dilute solution of alkali | soluble in acetone, soluble in methylene chloride, | Practically insoluble | insoluble in water | 30 |
| CC(=O)Oc1cccc2cc3cccc(OC(C)=O)c3c(OC(C)=O)c12 [triacetyldithranol] | compromised | reduced irritancy and staining |  |  |  |  |  |  |  |
